Source: PubChem BioAssay AID330 (DTP/NCI, 2004)
Toxic doses and inconclusive results are not listed. Numbered stars: 1 amine (or outer) side, 2 acyl side, 3 side chain; on linkers, the order of the positions; unused ones are H or OH. Bridge positions count the residues as written; N and C are the ends. Square brackets hold non-standard residues; d marks the D form. Peptide text beside a SMILES is read from it. I, II: the chains in the order shown. * marks the point of attachment. ξ: configuration not given here. Quinaldoyl(3-OH,6-OMe) = COc1ccc2nc(C(=O)*)c(O)cc2c1; X8 = CC(=O)OC1CC=NN([*:1])C1C(=O)[*:2]; ξNMeVal(3-OH) = CNC(C(=O)O)C(C)(C)O; X20 = O=C(C1CCCNN1[*:1])[*:2]; Sar = CNCC(=O)O

System: P388 leukemia ip, CD2F1 mice, survival T/C
Assay: NCI In Vivo Anticancer Drug Screen. Data for tumor model P388 Leukemia (intraperitoneal) in CD2F1 (CDF1) mice
Conditions: endpoint: median survival time, higher = longer survival
Method in brief: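 Mice carrying the transplanted tumor received test compound or vehicle. Survival was recorded in each group, and the value is the treated-group measurement divided by that of the vehicle-treated control group.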

[1] = dose: 60.0 mg/kg/injection, schedule: Q01DX005 (ip), vehicle: saline with Tween-80
[2] = dose: 120.0 mg/kg/injection, schedule: Q01DX005 (ip), vehicle: saline with Tween-80
[3] = dose: 240.0 mg/kg/injection, schedule: Q01DX005 (ip), vehicle: saline with Tween-80
[4] = dose: 100.0 mg/kg/injection, schedule: Q01DX005 (ip), vehicle: saline with Tween-80
[5] = dose: 200.0 mg/kg/injection, schedule: Q01DX005 (ip), vehicle: saline with Tween-80
[6] = dose: 100.0 mg/kg/injection, schedule: Q01DX009 (ip), vehicle: saline with Tween-80
[7] = dose: 200.0 mg/kg/injection, schedule: Q01DX009 (ip), vehicle: saline with Tween-80
[8] = dose: 400.0 mg/kg/injection, schedule: Q01DX009 (ip), vehicle: saline with Tween-80
[9] = dose: 50.0 mg/kg/injection, schedule: Q01DX005 (ip), vehicle: Klucel (hydroxypropylcellulose) (HPC)
[10] = dose: 100.0 mg/kg/injection, schedule: Q01DX005 (ip), vehicle: Klucel (hydroxypropylcellulose) (HPC)
[11] = dose: 200.0 mg/kg/injection, schedule: Q01DX005 (ip), vehicle: Klucel (hydroxypropylcellulose) (HPC)
[12] = dose: 50.0 mg/kg/injection, schedule: Q01DX005 (ip), vehicle: saline with Tween-80
[13] = dose: 50.0 mg/kg/injection, schedule: Q01DX009 (ip), vehicle: Klucel (hydroxypropylcellulose) (HPC)
[14] = dose: 100.0 mg/kg/injection, schedule: Q01DX009 (ip), vehicle: Klucel (hydroxypropylcellulose) (HPC)
[15] = dose: 200.0 mg/kg/injection, schedule: Q01DX009 (ip), vehicle: Klucel (hydroxypropylcellulose) (HPC)

COCC#CC(C)(C)OC
T/C (dose: 60.0 mg/kg/injection, schedule: Q01DX005 (ip), vehicle: saline): 95 % of control
T/C (dose: 120.0 mg/kg/injection, schedule: Q01DX005 (ip), vehicle: saline): 95 % of control
T/C (dose: 240.0 mg/kg/injection, schedule: Q01DX005 (ip), vehicle: saline): 99 % of control

CC(c1ccccc1)n1ccnc1CO (centres undefined)
T/C [1]: 103 % of control
T/C [2]: 107 % of control
T/C [3]: 110 % of control

CCCCCCCCCCCC(=O)OCCN(CCOC(=O)CCCCCCCCCCC)C(=O)COC(=O)CCCCCCCCCCC
T/C (dose: 6.25 mg/kg/injection, schedule: Q01DX009 (ip), vehicle: saline with Tween-80): 96 % of control
T/C (dose: 12.5 mg/kg/injection, schedule: Q01DX009 (ip), vehicle: saline with Tween-80): 98 % of control
T/C (dose: 25.0 mg/kg/injection, schedule: Q01DX009 (ip), vehicle: saline with Tween-80): 100 % of control
T/C (dose: 100.0 mg/kg/injection, schedule: Q01DX009 (ip), vehicle: saline + Tween-80 + alcohol): 111 % of control
T/C (dose: 200.0 mg/kg/injection, schedule: Q01DX009 (ip), vehicle: saline + Tween-80 + alcohol): 107 % of control

C=CC(O)C(C)C(=O)O (centres undefined)
T/C (dose: 6.25 mg/kg/injection, schedule: Q01DX005 (ip), vehicle: saline): 93 % of control
T/C (dose: 12.5 mg/kg/injection, schedule: Q01DX005 (ip), vehicle: saline): 95 % of control
T/C (dose: 25.0 mg/kg/injection, schedule: Q01DX005 (ip), vehicle: saline): 90 % of control
T/C [4]: 98 % of control
T/C [5]: 98 % of control

COc1ccc2nc(C(=O)NC3COC(=O)C(C(C)(C)O)N(C)C(=O)CN(C)C(=O)CNC(=O)C4CCCNN4C(=O)C(NC(=O)c4nc5ccc(OC)cc5cc4O)COC(=O)C(C(C)(C)O)N(C)C(=O)CN(C)C(=O)CNC(=O)C4C(OC(C)=O)CC=NN4C3=O)c(O)cc2c1 (centres undefined) (I: {Quinaldoyl(3-OH,6-OMe)}-S[X8]G[Sar][ξNMeVal(3-OH)] / II: {Quinaldoyl(3-OH,6-OMe)}-S[X20]G[Sar][ξNMeVal(3-OH)]; ester I:1-II:C, I:C-II:1; configuration not given here)
T/C (dose: 20.0 micrograms/kg/injection, schedule: Q01DX005 (ip), vehicle: DMSO): 97 % of control
T/C (dose: 40.0 micrograms/kg/injection, schedule: Q01DX005 (ip), vehicle: DMSO): 87 % of control

CCCCCCCCCCCCCC(=O)OC1C(C)C2(O)C(C=C(CO)CC3(O)C(O)C(C)=CC32)C2C(C)(C)C12OC(C)=O (centres undefined)
T/C (dose: 0.12 mg/kg/injection, schedule: Q01DX009 (ip), vehicle: saline): 106 % of control
T/C (dose: 0.25 mg/kg/injection, schedule: Q01DX009 (ip), vehicle: saline): 101 % of control
T/C (dose: 0.5 mg/kg/injection, schedule: Q01DX009 (ip), vehicle: saline): 111 % of control
T/C (dose: 1.0 mg/kg/injection, schedule: Q01DX009 (ip), vehicle: saline): 99 % of control
T/C (dose: 2.0 mg/kg/injection, schedule: Q01DX009 (ip), vehicle: saline): 101 % of control

ClCC#CCOc1c(Cl)cccc1Cl
T/C (dose: 50.0 mg/kg/injection, schedule: Q01DX009 (ip), vehicle: saline): 86 % of control
T/C (dose: 100.0 mg/kg/injection, schedule: Q01DX009 (ip), vehicle: saline): 92 % of control
T/C (dose: 200.0 mg/kg/injection, schedule: Q01DX009 (ip), vehicle: saline): 98 % of control

CCOC(=O)C(N)CSC (centres undefined)
T/C (dose: 50.0 mg/kg/injection, schedule: Q01DX009 (ip), vehicle: water): 97 % of control
T/C (dose: 200.0 mg/kg/injection, schedule: Q01DX009 (ip), vehicle: water): 103 % of control
T/C (dose: 400.0 mg/kg/injection, schedule: Q01DX009 (ip), vehicle: water): 106 % of control

Oc1c(Cl)cc(Cl)cc1/C=N\NC(=S)Nc1ccccc1
T/C (dose: 100.0 mg/kg/injection, schedule: Q04DX002 (ip), vehicle: Klucel (hydroxypropylcellulose) (HPC)): 97 % of control
T/C (dose: 200.0 mg/kg/injection, schedule: Q04DX002 (ip), vehicle: Klucel (hydroxypropylcellulose) (HPC)): 95 % of control

CC(=O)Oc1ccccc1C(=O)OC1CCN(C(C)C)C1 (centres undefined)
T/C (dose: 100.0 mg/kg/injection, schedule: Q04DX003 (ip), vehicle: saline): 100 % of control
T/C (dose: 200.0 mg/kg/injection, schedule: Q04DX003 (ip), vehicle: saline): 95 % of control

CC1(C(=O)O)CCCC2(C)C3=C(CCCC3)CCC12 (centres undefined)
T/C [6]: 104 % of control
T/C [7]: 100 % of control
T/C [8]: 95 % of control

COc1ccc(C2=C(Cl)C(=O)N(c3ccccn3)C(=O)C2(Cl)Cl)cc1
T/C (dose: 100.0 mg/kg/injection, schedule: Q04DX003 (ip), vehicle: Klucel (hydroxypropylcellulose) (HPC)): 98 % of control
T/C (dose: 200.0 mg/kg/injection, schedule: Q04DX003 (ip), vehicle: Klucel (hydroxypropylcellulose) (HPC)): 106 % of control
T/C (dose: 400.0 mg/kg/injection, schedule: Q04DX003 (ip), vehicle: Klucel (hydroxypropylcellulose) (HPC)): 100 % of control

CCCCCCCC/C=C\CCCCCCCC(=O)OCCCCCCCCCCCCCCCCC
T/C [6]: 100 % of control
T/C [7]: 100 % of control
T/C [8]: 96 % of control

Cc1cc(C)c(C2=NO[C@H]3c4ccccc4OC[C@@H]23)c(C)c1
T/C [9]: 105 % of control
T/C [10]: 96 % of control
T/C [11]: 89 % of control

Cc1ccc(S(=O)(=O)NC(=O)O/N=C/c2ccco2)cc1
T/C [9]: 98 % of control
T/C [10]: 98 % of control
T/C [11]: 100 % of control

CCCC(C)c1ccc(OCc2ccc(C)cc2)cc1 (centres undefined)
T/C (dose: 50.0 mg/kg/injection, schedule: Q01DX009 (ip), vehicle: saline with Tween-80): 114 % of control
T/C [6]: 91 % of control
T/C [7]: 95 % of control

O=C1c2ccccc2C(=O)N1OCc1ccc(-c2ccccc2)cc1
T/C [9]: 96 % of control
T/C [10]: 93 % of control

C/C(=N\N=c1\sc2ccccc2n1CC(=O)O)c1ccc(C)cc1
T/C (dose: 100.0 mg/kg/injection, schedule: Q01DX001 (ip), vehicle: saline with Tween-80): 102 % of control
T/C (dose: 200.0 mg/kg/injection, schedule: Q01DX001 (ip), vehicle: saline with Tween-80): 106 % of control
T/C (dose: 400.0 mg/kg/injection, schedule: Q01DX001 (ip), vehicle: saline with Tween-80): 101 % of control

O=C(CCCCCCCC(=O)Nc1ccc2[nH]c3ccccc3c(=O)c2c1)Nc1ccc2[nH]c3ccccc3c(=O)c2c1
T/C [12]: 107 % of control
T/C [4]: 107 % of control
T/C [5]: 106 % of control

CC1(Cc2ccccc2)NC(=O)NC1=O (centres undefined)
T/C [13]: 100 % of control
T/C [14]: 104 % of control
T/C [15]: 105 % of control

CCC1(c2ccc(C)cc2)C(=O)NCNC1=O
T/C (dose: 60.0 mg/kg/injection, schedule: Q01DX005 (ip), vehicle: Klucel (hydroxypropylcellulose) (HPC)): 102 % of control
T/C (dose: 120.0 mg/kg/injection, schedule: Q01DX005 (ip), vehicle: Klucel (hydroxypropylcellulose) (HPC)): 102 % of control
T/C (dose: 240.0 mg/kg/injection, schedule: Q01DX005 (ip), vehicle: Klucel (hydroxypropylcellulose) (HPC)): 100 % of control

NCC(O)c1ccc(Nc2ccnc3cc(Cl)ccc23)cc1 (centres undefined)
T/C (dose: 50.0 mg/kg/injection, schedule: Q01DX005 (ip), vehicle: saline): 114 % of control
T/C (dose: 100.0 mg/kg/injection, schedule: Q01DX005 (ip), vehicle: saline): 105 % of control

CC(Cc1ccccc1)C(=O)Nc1ccccc1 (centres undefined)
T/C (dose: 100.0 mg/kg/injection, schedule: Q04DX002 (ip), vehicle: saline with Tween-80): 91 % of control
T/C (dose: 200.0 mg/kg/injection, schedule: Q04DX002 (ip), vehicle: saline with Tween-80): 94 % of control
T/C (dose: 400.0 mg/kg/injection, schedule: Q04DX002 (ip), vehicle: saline with Tween-80): 91 % of control

ClCCN(CCCCCCN(CCCl)c1ccccc1)c1ccccc1
T/C [13]: 109 % of control
T/C [14]: 109 % of control
T/C [15]: 108 % of control

O=C(N/C(=C\c1ccc2c(c1)OCO2)c1nc2ccccc2s1)c1ccccc1
T/C [1]: 107 % of control
T/C [2]: 121 % of control
T/C [3]: 123 % of control

CCO[Si](CCCCl)(OCC)OCC
T/C [13]: 100 % of control
T/C [14]: 106 % of control
T/C [15]: 118 % of control

FC(F)(F)c1ccc(C(Nc2nncs2)Nc2nncs2)cc1
T/C [12]: 93 % of control
T/C [4]: 96 % of control
T/C [5]: 105 % of control

C/C(=N\NC(=S)N1CCC(c2ccccc2)CC1)c1ncccn1
T/C (dose: 12.5 mg/kg/injection, schedule: Q01DX005 (ip), vehicle: saline with Tween-80): 110 % of control
T/C [12]: 169 % of control
